Measurements: US20100167311A1, “Oxidoreductases and Processes Utilising Such Enzymes” (priority 2006, published 2010)

What was measured:
[1] = target: T1, type-1 site of NiR M150G (Alcaligenes faecalis, UniProt P38501, M186G); test: biochemical; format: binding, A. faecalis S-6
T1 construct: His tag (C, cleaved yes); made in house
Excerpt: Spectroscopy and assays—The spectrophotometer was a Perkin Elmer Instruments Lambda 800.

[2] = target: T2, NiR M150G (Alcaligenes faecalis, UniProt P38501, M186G); test: Activity assay monitoring oxidation of pseudoazurin, NiR M150G with external ligands; format: biochemical, A. faecalis S-6; details: for kcat^sat of NiR M150G saturated with external ligand: pseudoazurin 275-325 μM, nitrite 5 mM, 50 mM Mops pH 7.0; for effect of external ligand on catalytic activity of NiR M150G: in words
T2 construct: His tag (C, cleaved yes); made in house
T2 sequence (P38501 other isoform, or with tags, fused parts or gaps M186G): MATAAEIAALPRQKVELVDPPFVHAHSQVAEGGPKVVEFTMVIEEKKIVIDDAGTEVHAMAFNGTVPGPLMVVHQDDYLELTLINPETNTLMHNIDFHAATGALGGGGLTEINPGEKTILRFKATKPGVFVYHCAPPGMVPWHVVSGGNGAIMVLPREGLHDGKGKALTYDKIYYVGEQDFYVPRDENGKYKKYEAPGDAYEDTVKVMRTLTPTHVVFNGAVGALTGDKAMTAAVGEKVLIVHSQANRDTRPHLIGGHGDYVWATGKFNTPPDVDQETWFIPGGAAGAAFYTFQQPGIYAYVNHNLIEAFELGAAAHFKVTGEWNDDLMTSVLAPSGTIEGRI
Protocol: (§1) Activity assays were carried out by monitoring the oxidation of pseudoazurin as described (3). The concentrations of the electron donor pseudoazurin (275-325 μM) and the electron acceptor nitrite (5 mM) were saturating. The concentration of NiR was typically 1 nM. The buffer for activity assays was always 50 mM Mops pH 7.0. Whenever using volatile compounds, the cuvette was sealed with a PTFE stopper. All reported activities were calculated from initial rates. Apparent dissociation constants (KD^app) were obtained from a least-squares fit of activity (v) versus ligand concentration to v=v^NoLigand+Δv×[L]/(KD^app+[L]). The meaning of KD^app will be explained in the Discussion section.

[3] = target: T3, wt NiR (Alcaligenes faecalis, UniProt P38501); test: Activity assay monitoring oxidation of pseudoazurin, wt NiR with external ligands; format: biochemical, A. faecalis S-6; details: for effect of external ligand on catalytic activity of wt NiR: in words
T3 construct: His tag (C, cleaved yes); made in house
Protocol: as §1

[4] = target: T4, pseudoazurin (UniProt P04377)
T4 sequence: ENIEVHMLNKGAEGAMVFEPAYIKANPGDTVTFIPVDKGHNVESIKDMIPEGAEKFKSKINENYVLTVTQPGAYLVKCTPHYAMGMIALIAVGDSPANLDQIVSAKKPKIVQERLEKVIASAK

[5] = target: T1, type-1 site of NiR M150G; format: binding, A. faecalis S-6; details: versus NHE, NiR M150G with external ligand bound, interpreted as upper limit
Protocol: Potentiometric titrations—Potentiometric titrations were carried out as described by Dutton (47) in a cuvette held at 298 K in 100 mM potassium phosphate pH 7.0. The NiR concentration was typically 40 mM. Diaminodurol (2,3,5,6-tetramethyl-1,4-phenylenediamine) was used as a redox mediator at 100-200 μM. Potassium ferricyanide and sodium dithionite were used to change the potential of the solution. Visible absorption and the potential of the solution were monitored until both were stable. Spectra were recorded in the range of 510-800 nm since diaminodurol gives negligible absorbance in this region.
The recorded spectra were integrated using a routine written in Igor Pro (WaveMetrics Inc.). For base line correction this routine approximated the scattering contributions (due to aggregated protein) either by a linear approximation or by a method described elsewhere (48). […] The integrated absorbance versus potential was fitted to the Nernst equation with the number of electrons held at one. […]
in which EM^NL is the reduction potential without ligand, [L] denotes the free ligand concentration, KD^ox and KD^red are the ligand dissociation constants from the oxidized and reduced type-1 site respectively, R is the gas constant, F is the Faraday constant and T is the absolute temperature. […] The midpoint potential of the type-1 site with the external ligand bound (EM^L) was calculated from equation 2. […]

[6] = in words; cited from earlier work
[7] = target: T5, pseudoazurin, P04377
T5 chain: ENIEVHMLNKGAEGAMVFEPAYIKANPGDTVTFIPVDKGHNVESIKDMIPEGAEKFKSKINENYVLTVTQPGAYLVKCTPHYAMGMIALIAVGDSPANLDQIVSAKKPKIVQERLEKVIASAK

[8] = tested on: pseudoazurin; test: Catalytic activity of NiR variants with the physiological electron donor pseudoazurin and nitrite; format: biochemical, A. faecalis S-6; details: no external ligand; pseudoazurin 275-325 μM, nitrite 5 mM, 50 mM Mops pH 7.0
Protocol: as §1

T1 sequence (P38501 other isoform, or with tags, fused parts or gaps M186G): as the sequence (P38501 other isoform, or with tags, fused parts or gaps M186G) above

For `CC#N` [acetonitrile], the Kd [1] was 71.5 ± 7.3 mM, the “kcat^sat of NiR M150G saturated with external ligand” value (“kcat^sat of NiR M150G saturated” below) [2] was >390^A s^−1 and the “increase of catalytic activity” value ([3]; wt NiR) was 50%.

For “nitrite reductase M150T from Alcaligenes faecalis S-6”, the kcat^sat (oxidation of pseudoazurin, no external ligand) [4] was 126 s⁻¹.

In the case of “nitrite reductase M150G from Alcaligenes faecalis S-6”, the kcat^sat (oxidation of pseudoazurin, no external ligand) [4] is reported as 133 s⁻¹, the kcat^sat (oxidation of pseudoazurin, saturated with acetamide) [4] is reported as 374 s⁻¹ and the kcat^sat (oxidation of pseudoazurin, saturated with dimethylsulfide) [4] is reported as 373 s⁻¹. The “kcat^sat (oxidation of pseudoazurin, with acetonitrile)” value [4] was >390^A, the kcat^sat (oxidation of pseudoazurin, with ethylmethylsulfide) [4] was > 292 s⁻¹ and the kcat^sat (oxidation of pseudoazurin, with formamide) [4] was > 255 s⁻¹.

With `c1c[nH]cn1` [imidazole] the Kd [1] was 52 ± 3 mM, the “rate of slow spectral change (absorption at 430 nm versus time, single exponential)” value ([1]; NiR M150G with imidazole 260 mM, 25° C.) was 0.823 ± 0.003 h⁻¹ and the “effect of external ligand on catalytic activity of NiR M150G” value (“effect of external ligand … of NiR M150G” for short) [2] was “decreased in activity”. For the same molecule, the “effect of external ligand on catalytic activity of wt NiR” value (shortened to “effect of external ligand … of wt NiR”) [3] was “decreased in activity”.

In the case of `c1ccncc1` [pyridine], the “fitted reduction potential with ligand bound (EM^L)” value [5] is reported as < 245 mV.

Work on `Cc1cscn1` [4-methylthiazole] yielded a Kd [1] of 22 ± 3 mM.

With `NC=O` [formamide] the “effect of external ligand … of NiR M150G” value [2] was “activity doubled”, the “kcat^sat of NiR M150G saturated” value [2] was >255 s⁻¹ and the “effect of external ligand … of wt NiR” value [3] was “constant activity”.

With `CSC` [dimethylsulfide] the Kd [1] was 21 ± 4 mM, the Kd [2] was 34 ± 7 mM and the “effect of external ligand … of NiR M150G” value [2] was “restored the activity up to the level of wt NiR”. For the same molecule, the “kcat^sat of NiR M150G saturated” value [2] was 373 ± 22 s⁻¹.

“nitrite reductase M150H from Alcaligenes faecalis S-6” gave a kcat^sat (oxidation of pseudoazurin, no external ligand) [4] of 0.099 s⁻¹.

With `CCSC` [ethylmethylsulfide] the Kd [1] was 14 ± 6 mM, the Kd [2] was > 73 mM and the “effect of external ligand … of NiR M150G” value [2] was “activity doubled”. The “kcat^sat of NiR M150G saturated” value [2] was >292 s⁻¹ and the “effect of external ligand … of wt NiR” value [3] was “constant activity”.

For `CC(N)=O` [acetamide], the Kd [1] was 71 ± 3 mM, the “effect of external ligand … of NiR M150G” value [2] was “restored the activity up to the level of wt NiR” and the “kcat^sat of NiR M150G saturated” value [2] was 374 ± 28 s⁻¹. The “fitted reduction potential with ligand bound (EM^L)” value [5] was < 225 mV.

B1: Achromobacter cycloclastes NiR M150Q: literature Met150Gln mutant of Achromobacter cycloclastes nitrite reductase (protein, UniProt P25006 39-378, looked up, variant M150Q)
Copper-containing nitrite …: AAGAAPVDISTLPRVKVDLVKPPFVHAHDQVAKTGPRVVEFTMTIEEKKLVIDREGTEIHAMTFNGSVPGPLMVVHENDYVELRLINPDTNTLLHNIDFHAATGALGGGALTQVNPGEETTLRFKATKPGVFVYHCAPEGMVPWHVTSGQNGAIMVLPRDGLKDEKGQPLTYDKIYYVGEQDFYVPKDEAGNYKKYETPGEAYEDAVKAMRTLTPTHIVFNGAVGALTGDHALTAAVGERVLVVHSQANRDTRPHLIGGHGDYVWATGKFRNPPDLDQETWLIPGGTAGAAFYTFRQPGVYAYVNHNLIEAFELGAAGHFKVTGEWNDDLMTSVVKPASM
For B1, the “electron transfer rate (literature)” value [6] is given as “decreased below the detection limit”.

B2: wild-type Cu-containing nitrite reductase from Alcaligenes faecalis S-6 (protein)
chain: QGAVRKATAAEIAALPRQKVELVDPPFVHAHSQVAEGGPKVVEFTMVIEEKKIVIDDAGTEVHAMAFNGTVPGPLMVVHQDDYLELTLINPETNTLMHNIDFHAATGALGGGGLTEINPGEKTILRFKATKPGVFVYHCAPPGMVPWHVVSGMNGAIMVLPREGLHDGKGKALTYDKIYYVGEQDFYVPRDENGKYKKYEAPGDAYEDTVKVMRTLTPTHVVFNGAVGALTGDKAMTAAVGEKVLIVHSQANRDTRPHLIGGHGDYVWATGKFNTPPDVDQETWFIPGGAAGAAFYTFQQPGIYAYVNHNLIEAFELGAAAHFKVTGEWNDDLMTSVLAPSGT
For B2, the kcat^sat (oxidation of pseudoazurin, no external ligand) [7] was 416 s⁻¹ and the “kcat^sat” value [8] was 416 ± 10 s⁻¹.
